The record followed here is ChEMBL document CHEMBL5143625, “Isolation, synthesis and bioactivity evaluation of isoquinoline alkaloids from Corydalis hendersonii Hemsl. against gastric cancer in vitro and in vivo” (Bioorg Med Chem, 2022).

pIC50: −log10 of the molar value. Some results are limits rather than exact numbers.

Series [1] concerns MGC-803. Briefly: Antiproliferative activity against human MGC-803 cells assessed as reduction in cell viability after 24 hrs by MTT assay. It is filed as functional, cell-based. The settings on record: MGC-803, 24 h. For orientation: Tetrazolium dyes change colour on reduction, which living cells bring about.
The subject of series [2] is GES1. Briefly: Antiproliferative activity against human GES1 cells assessed as reduction in cell viability after 24 hrs by MTT assay. The class given is functional, cell-based. The following applies: GES1, 24 h.
Series [3] relates to HGC-27. The series can be described thus: Antiproliferative activity against human HGC-27 cells assessed as reduction in cell viability after 24 hrs by MTT assay. The settings on record: HGC-27, 24 h. The class given is functional, cell-based.
Series [4] relates to MGC-803. Briefly: Antitumor activity against human MGC-803 cells xenografted in immunodeficient nude mouse assessed as tumor volume at 10 mg/kg, ip administered for 3 weeks (reference value: 1039.6 mm3). It is filed as functional.
Series [5] concerns MGC-803. Briefly: Antitumor activity against human MGC-803 cells xenografted in immunodeficient nude mouse assessed as tumor weight at 10 mg/kg, ip administered for 3 weeks (reference value: 157.8 mg). The class given is functional. A general note: In xenograft studies the graft and the host belong to different species.
Series [6] in a line: Toxicity in immunodeficient nude mouse xenografted with human MGC-803 cells assessed as reduction in body weight at 10 mg/kg, ip administered for 3 weeks relative to control. It is filed as organism-based. Set-up: scale not given: the % may be the effect or the level left. The following applies: in vivo, 504 h.

As for `c1cc2c(c3c1CC1c4cc5c(cc4CCN1C3)OCO5)OCO2` (stereo not drawn), the pIC50 is 3.97 in series [1], less than 3.82 in series [2] and 4.26 in series [3].
Regarding `CCOC(=O)c1c(C(=O)c2nccc3cc4c(cc23)OCO4)ccc2c1OCO2`, the pIC50 in series [1] is 4.12; in series [2], 3.83; in series [3], 4.18.
As to `CN1CCc2cc3c(cc2C(=O)Cc2ccc4c(c2C1)OCO4)OCO3`, the pIC50 is 4.02 in series [1], less than 3.82 in series [2] and 3.92 in series [3].
For `COc1cc2c(cc1C(=O)c1nccc3cc4c(cc13)OCO4)OCO2` the same measures were 5.11, 4.12 and 5.03.
Regarding `O=c1c2c3c(ccc2cc2n1CCc1cc4c(cc1-2)OCO4)OCO3`, the results for the pIC50 in series [1], in series [2] and in series [3] were 4.21, less than 3.82 and 4.26, respectively.
Consider `COc1cc2c(cc1OC)C1Cc3ccc4c(c3CN1CC2)OCO4` (stereo not drawn), for which the pIC50 is 4.03 in series [1], less than 3.82 in series [2] and 4.09 in series [3].
On to `CC(=O)c1ccc2c(c1Cn1ccc3cc4c(cc3c1=O)OCO4)OCO2`, for which the figures for the pIC50 in series [1], in series [2] and in series [3] were 4.10, 3.86 and 4.27, respectively.
`COc1ccc2c(c1OC)CN(C)CCc1cc3c(cc1C(=O)C2)OCO3` [ALLOCRYPTOPINE]: the pIC50 is 3.96 in series [1], less than 3.82 in series [2] and 4.01 in series [3].
For `COc1cc2c(cc1Cc1nccc3cc4c(cc13)OCO4)OCO2`, the pIC50 in series [1] was less than 3.82; in series [2] it was less than 3.82; in series [3], 3.91.
For the compound `O=C1NCCc2cc3c(cc21)OCO3` [NOROXYHYDRASTININE], the pIC50 in series [1] was less than 3.82; in series [2], less than 3.82; in series [3], 3.92.
Turning to `CN1CCc2cc3c(cc2[C@H]1[C@H]1OC(=O)c2c1ccc1c2OCO1)OCO3`, the figures for the pIC50 in series [1], in series [2] and in series [3] were less than 3.82, less than 3.82 and 4.00, respectively.
Turning to `COc1cc2c(cc1O)[C@@H]1Cc3ccc(OC)c(O)c3CN1CC2` [SCOULERINE], the pIC50 in series [1] was 4.90; in series [2], 4.02; in series [3], 5.21.
With `O=c1[nH]cc(F)c(=O)[nH]1` [FLUOROURACIL], the Activity in series [4] amounted to 375.4 mm3; in series [5], 157.8 mg; in series [6] it was 14.2%. Moreover, the pIC50 is 4.54 in series [1], 4.30 in series [2] and 4.34 in series [3].
Take `COc1cc2c(cc1O)C1Cc3ccc4c(c3CN1CC2)OCO4` (stereo not drawn) [CHEILANTHIFOLINE]: the pIC50 in series [1] was 4.08; in series [2], 3.94; in series [3], 4.42.
For `COc1cc(/C=C/C(=O)NCCc2ccc(O)cc2)ccc1O` [N-TRANS-FERULOYL TYRAMINE], the values for the pIC50 in series [1], in series [2] and in series [3] were 4.01, less than 3.82 and 4.07, respectively.

In general, pIC50 refers to the IC50 on a negative log10 scale, so that one unit is a factor of ten.
